Test: Initial screening for poor solubility in aqueous media
Description: Many potential candidates were screened during this process. […] This list was then prioritized based on aqueous solubility, safety, and cost. […] This test was done by mixing […] of PBS and adding 10 mg of bulk drug. […] If the drug fully dissolved at this concentration, it was not considered for the testing.

[1] = PBS pH 7.4, 10 mg bulk drug in 0.3-1.0 L, criterion: no more soluble than 20 mg/L

| poor solubility screening in aqueous media (pH 7.4) | poor solubility screening in aqueous media [1] | Structure (SMILES) |
| --- | --- | --- |
| passed the initial screening |  | COc1ccc(Cl)cc1C(=O)NCCc1ccc(S(=O)(=O)NC(=O)NC2CCCCC2)cc1 [glyburide, 1-[[p-[2-(5-chloro-o-anisamido)ethyl]phenyl]-sulfonyl]-3-cyclohexylurea] |
|  | passed the initial screening | Cc1c(OCC(F)(F)F)ccnc1C[S+]([O-])c1nc2ccccc2[nH]1 (stereo not drawn) [lansoprazole] |
|  | passed the initial screening | CN1C(C(=O)Nc2ccccn2)=C(O)c2ccccc2S1(=O)=O [piroxicam] |

From US20030129250A1, “Particulate compositions for improving solubility of poorly soluble agents” (Advanced Inhalation Research Inc., priority 2001, published 2003)
